Laboratory results reported in paper PMC5823845 (Bioorganic & Medicinal Chemistry, 2018).

Tests used:
[1] = biological target: T1, Cyp 450 1A2 (Homo sapiens, UniProt P05177); assay: Cytochrome P450 inhibition in human liver microsomes; assay type: in vitro ADME; conditions: human liver microsomes
T1 construct: tissue Cyprotex (CRO); host or cells: human liver microsomes
T1 sequence (P05177 1-516): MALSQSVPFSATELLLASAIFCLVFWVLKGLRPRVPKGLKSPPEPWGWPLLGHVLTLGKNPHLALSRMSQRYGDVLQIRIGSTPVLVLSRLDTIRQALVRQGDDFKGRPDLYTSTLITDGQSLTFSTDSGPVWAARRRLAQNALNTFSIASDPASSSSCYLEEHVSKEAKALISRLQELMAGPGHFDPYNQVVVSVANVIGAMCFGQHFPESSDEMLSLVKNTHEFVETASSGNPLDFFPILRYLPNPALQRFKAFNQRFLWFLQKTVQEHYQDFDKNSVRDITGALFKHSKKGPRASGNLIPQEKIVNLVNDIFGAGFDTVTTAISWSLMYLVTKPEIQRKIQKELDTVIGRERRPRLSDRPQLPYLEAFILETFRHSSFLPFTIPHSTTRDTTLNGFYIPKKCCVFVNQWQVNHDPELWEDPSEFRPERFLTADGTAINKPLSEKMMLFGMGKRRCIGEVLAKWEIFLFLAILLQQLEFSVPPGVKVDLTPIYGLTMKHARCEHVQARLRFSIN
Protocol: (§1) The five main cytochrome P450 isoforms (CYP1A, CYP2C9, CYP2C19, CYP2D6 and CYP3A4) were investigated in the P450 inhibition assay. […] At the end of the incubation, the formation of the metabolite was monitored by LC-MS/MS (or fluorescence in the case of CYP1A) at each of the test compound concentrations.

[2] = biological target: T2, Cyp 450 2C19 (Homo sapiens, UniProt P33261); assay: as above; assay type: in vitro ADME; conditions: human liver microsomes
T2 construct: tissue Cyprotex (CRO); host or cells: human liver microsomes
Protocol: as §1

[3] = Stability and intrinsic clearance in cryopreserved hepatocytes; conditions: rat
Protocol: (§2) Reactions were terminated by addition of 100 μL of acetonitrile containing carbamazepine as the analytical internal standard. Samples were centrifuged and the supernatant fractions analysed by LC-MS/MS. The instrument responses (peak heights) were referenced to the zero time-point samples (as 100%) in order to determine the percentage of compound remaining. Ln plots of the % remaining, for each compound, were used to determine the half-life for the hepatocyte incubations.

[4] = as above; conditions: human
Protocol: as §2

T2 sequence (P33261 whole entry): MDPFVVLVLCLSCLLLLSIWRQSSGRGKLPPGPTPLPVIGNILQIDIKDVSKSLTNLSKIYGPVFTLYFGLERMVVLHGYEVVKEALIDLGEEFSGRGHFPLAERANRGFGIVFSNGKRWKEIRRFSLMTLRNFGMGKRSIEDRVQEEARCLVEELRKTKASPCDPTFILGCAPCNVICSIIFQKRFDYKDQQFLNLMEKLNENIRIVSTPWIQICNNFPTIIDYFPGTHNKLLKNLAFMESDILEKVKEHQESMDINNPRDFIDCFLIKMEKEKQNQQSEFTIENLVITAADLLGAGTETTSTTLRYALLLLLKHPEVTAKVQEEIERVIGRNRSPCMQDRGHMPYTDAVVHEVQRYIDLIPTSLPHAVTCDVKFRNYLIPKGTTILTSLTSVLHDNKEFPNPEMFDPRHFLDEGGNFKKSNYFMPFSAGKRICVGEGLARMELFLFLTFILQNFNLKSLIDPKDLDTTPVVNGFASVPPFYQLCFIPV

## CCOc1c(Cl)cc(C(=O)Nc2ccc(C(=O)O)c(C)c2)cc1OC(C)C [Compound 56, 4-(3-Chloro-4-ethoxy-5-isopropoxybenzamido)-2-methylbenzoic acid]
[1]
  IC50: > 25 µM
[2]
  IC50: > 25 µM
[3]
  half-life at 1 μM: 5.95 h
  half-life at 30 μM: > 7.5 h
  hepatocyte CLint at 1 μM: 4 µL/min/1e6 cells
  hepatocyte CLint at 30 μM: < 3 µL/min/1e6 cells
[4]
  half-life at 1 μM: > 7.5 h
  half-life at 30 μM: > 7.5 h
  hepatocyte CLint at 1 μM: < 3 µL/min/1e6 cells
  hepatocyte CLint at 30 μM: < 3 µL/min/1e6 cells
